Experimental data: patent US10189819B2, “Factor IXa inhibitors” (MERCK SHARP & DOHME CORP., priority 2014, dated 2019)
Like-named read-outs stand apart in the source and are kept apart here.

Biological target: Factor IXa (Homo sapiens (Human), UniProt P00740)
Test: Determination of inhibitory activity against Factor IXa (cleavage of fluorescent peptide CH3SO2-D-CHG-Gly-Arg-AFC)
Assay type: biochemical
Procedure: Determination of Inhibitory Activity Against Factor IXa
Formation of a clot to stem bleeding at a site of blood vessel injury involves the coordinated activity of a group of plasma proteins that initiate and propagate fibrin formation and subsequently protect fibrin from premature degradation. Factor IX is a key component of the plasma system that forms a fibrin clot at a site of vascular injury. The activity of Factor IXa is measured by monitoring the cleavage of the fluorescent peptide, CH3SO2-D-CHG-Gly-Arg-AFC.AcOH (“CHG” is cyclohexyl-glycine and “AFC” is trifluoro aminomethyl coumarin). Factor IXa cleaves the amide bond between Arg and AFC, thereby releasing the AFC fluorophore. The free AFC can be detected with a fluorescence detector at an excitation wavelength of 405 nm and emission wavelength of 510 nm.

Factor IXa, sequence (P00740 227-461): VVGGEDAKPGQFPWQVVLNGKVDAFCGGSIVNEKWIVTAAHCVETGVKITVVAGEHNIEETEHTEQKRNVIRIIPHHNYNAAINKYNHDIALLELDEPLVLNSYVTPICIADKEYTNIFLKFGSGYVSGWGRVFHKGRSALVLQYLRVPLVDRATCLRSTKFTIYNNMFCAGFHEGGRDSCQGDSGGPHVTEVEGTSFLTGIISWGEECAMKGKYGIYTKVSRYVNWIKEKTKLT
Factor IXa, sequence (P00740 47-191 partner): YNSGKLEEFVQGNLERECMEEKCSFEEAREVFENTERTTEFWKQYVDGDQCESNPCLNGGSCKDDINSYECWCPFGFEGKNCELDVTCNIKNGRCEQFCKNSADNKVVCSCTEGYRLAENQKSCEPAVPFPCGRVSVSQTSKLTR

| Compound | IC50 (read-out: hFIXa IC50) [nM] | IC50 (read-out: FIXa IC50) [nM] |
| --- | --- | --- |
| Cc1cc2nc(C(CNC(=O)c3ccc(-n4cnnc4)cc3Cl)c3ccccc3F)[nH]c2cc1C (centres unmarked) [Example 51] | 19.3 |  |
| Cc1cc2nc(C(CNC(=O)c3ccc(-n4cnnc4)cc3Cl)c3ccc(F)cc3)[nH]c2cc1C (centres unmarked) [Example 52] | 8.42 |  |
| Cc1cc2nc(C(CNC(=O)c3c(Cl)cc(-n4cnnc4)cc3Cl)c3ccc(F)cc3)[nH]c2cc1C (centres unmarked) [Example 53] | 2.82 |  |
| Cc1ncn(-c2ccc(C(=O)NCC(c3ccc(C(F)(F)F)nc3)c3nc4cc(C)c(C)cc4[nH]3)c(Cl)c2)n1 (centres unmarked) [Example 55] | 427 |  |
| Cc1cc2nc(C(CNC(=O)c3ccc(-n4cnnc4)cc3Cl)c3cccnc3)[nH]c2cc1C (centres unmarked) [Example 56] | 15.3 |  |
| COc1cc2nc([C@@H](CNC(=O)c3c(Cl)cc(-n4cnc(C)n4)cc3Cl)c3cnc(N(C)C)nc3)[nH]c2cc1Cl [Example 57] | 8.76 |  |
| COc1cc2nc([C@@H](CNC(=O)c3c(Cl)cc(-n4cnc(C)n4)cc3Cl)c3ccc(C(N)=O)cc3)[nH]c2cc1Cl [Example 58] | 2.36 |  |
| COc1cc2nc(C(CNC(=O)c3c(Cl)cc(-n4cnc(C)n4)cc3Cl)c3cccc(C(=O)O)c3)[nH]c2cc1Cl (centres unmarked) [Example 59] | 1.5 |  |
| COc1cc2nc([C@@H](CNC(=O)c3c(Cl)cc(-n4cnc(C)n4)cc3Cl)c3ccc(C(=O)O)cc3)[nH]c2cc1Cl [Example 60] | 4.79 |  |
| CNC(=O)c1cccc([C@H](CNC(=O)c2c(Cl)cc(-n3cnc(C)n3)cc2Cl)c2nc3cc(OC)c(Cl)cc3[nH]2)c1 [Example 61] | 4.78 |  |
| COc1cc2nc(C(CNC(=O)c3c(Cl)cc(-n4cnc(C)n4)cc3Cl)c3cccc(CC(=O)O)c3)[nH]c2cc1Cl (centres unmarked) [Example 62] | 1.75 |  |
| COc1cc2nc([C@@H](CNC(=O)c3c(Cl)cc(-n4cnc(C)n4)cc3Cl)c3ccc(C(=O)N(C)C)cc3)[nH]c2cc1Cl [Example 63] | 27.7 |  |
| COC(=O)Cc1cccc(C(CNC(=O)c2c(Cl)cc(-n3cnc(C)n3)cc2Cl)c2nc3cc(OC)c(Cl)cc3[nH]2)c1 (centres unmarked) [Example 64] | 6.1 |  |
| CCOC(=O)c1ccc([C@H](CNC(=O)c2c(Cl)cc(-n3cnc(C)n3)cc2Cl)c2nc3cc(OC)c(Cl)cc3[nH]2)cc1 [Example 65] | 5.6 |  |
| CCOC(=O)c1cccc([C@H](CNC(=O)c2c(Cl)cc(-n3cnc(C)n3)cc2Cl)c2nc3cc(OC)c(Cl)cc3[nH]2)c1 [Example 66] | 16.8 |  |
| COc1cc2nc([C@@H](CNC(=O)c3c(Cl)cc(-n4cnc(C)n4)cc3Cl)c3cccc(C(=O)NC4CC4)c3)[nH]c2cc1Cl [Example 67] | 2.9 |  |
| Cc1cc2nc(C(CNC(=O)c3ccc(-n4cnnc4)cc3Cl)c3cccc(F)c3)oc2cc1C (centres unmarked) [Example 68] | 71.9 |  |
| Cc1cc2nc([C@@](C)(CNC(=O)c3c(Cl)cc(-n4cnnc4)cc3Cl)c3ccc(F)cc3)[nH]c2cc1C [Example 70] |  | 5.6 |
| COc1cc2nc([C@@H](CNC(=O)c3c(Cl)cc(-n4cnc(C)n4)cc3Cl)n3cc(CN(C)C)nn3)[nH]c2cc1Cl [Example 72] | 67.2 |  |
| COc1cc2nc(C(CNC(=O)c3c(Cl)cc(-n4cnc(C)n4)cc3Cl)n3cc(C(C)(C)O)nn3)[nH]c2cc1Cl (centres unmarked) [Example 73] | 34.4 |  |
| Cc1cc2cc([C@@H](CNC(=O)c3c(Cl)cc(-n4cnnc4)cc3Cl)c3ccccc3)[nH]c2cc1C [Example 74, (R)-2,6-dichloro-N-(2-(5,6-dimethyl-1H-indol-2-yl)-2-phenylethyl)-4-(4H-1,2,4-triazol-4-yl)benzamide] |  | 29.1 |
| Cc1ncn(-c2cc(Cl)c(C(=O)NC[C@@H](c3cccc(F)c3)c3ccc4[nH]c(C)nc4c3)c(Cl)c2)n1 [Example 75, (R)-2,6-dichloro-N-(2-(3-fluorophenyl)-2-(2-methyl-1H-benzo[d]imidazol-5-yl)ethyl)-4-(3-methyl-1H-1,2,4-triazol-1-yl)benzamide] |  | 9.1 |
| Cc1ncn(-c2cc(Cl)c(C(=O)NC[C@@H](c3cccc(F)c3)c3cnc4[nH]c(C)nc4c3)c(Cl)c2)n1 [Example 76, (S)-2,6-dichloro-N-(2-(3-fluorophenyl)-2-(2-methyl-3H-imidazo[4,5-b]pyridin-6-yl)ethyl)-4-(3-methyl-1H-1,2,4-triazol-1-yl)benzamide] |  | 80.6 |
| Cc1ncn(-c2cc(Cl)c(C(=O)NC[C@@H](c3cccc(F)c3)c3cnc4[nH]c(C)cc4c3)c(Cl)c2)n1 [Example 77] | 3.7 |  |
| Cc1ncn(-c2cc(Cl)c(C(=O)NC[C@@H](c3cccc(F)c3)c3ccc4[nH]c(C)nc4c3F)c(Cl)c2)n1 [Example 78] | 1.93 |  |
| Cc1ncn(-c2cc(Cl)c(C(=O)NC[C@@H](c3cccc(F)c3)c3cc(F)c4[nH]c(C)nc4c3)c(Cl)c2)n1 [Example 79] | 6.42 |  |
| Cc1ncn(-c2cc(Cl)c(C(=O)NC[C@@H](c3cccc(F)c3)c3ccc4[nH]c(C)nc4n3)c(Cl)c2)n1 [Example 80] | 16.9 |  |
| Cc1ncn(-c2cc(Cl)c(C(=O)NCC(c3cccc(F)c3)c3cc4nc(C)[nH]c4cn3)c(Cl)c2)n1 (centres unmarked) [Example 81] | 126 |  |

The remaining lines, values ahead:

| IC50 (read-out: hFIXa IC50) [nM] | IC50 (read-out: FIXa IC50) [nM] | Compound |
| --- | --- | --- |
| 75.2 |  | Cc1ncn(-c2cc(Cl)c(C(=O)NC[C@@H](c3cccc(F)c3)c3cc(C)c4[nH]c(C)nc4c3)c(Cl)c2)n1 [Example 82] |
|  | 59.5 | Cc1ncn(-c2cc(Cl)c(C(=O)NC[C@@H](c3cccc(F)c3)c3ccc4sc(C)nc4c3)c(Cl)c2)n1 [Example 83, (R)-2,6-dichloro-N-(2-(3-fluorophenyl)-2-(2-methylbenzo[d]thiazol-5-yl)ethyl)-4-(3-methyl-1H-1,2,4-triazol-1-yl)benzamide] |
|  | 240 | Cc1ccc2nn([C@@H](CNC(=O)c3ccc(-n4cnnc4)cc3Cl)c3ccccc3)cc2c1 [Example 84, (R)-2-chloro-N-(2-(5-methyl-2H-indazol-2-yl)-2-phenylethyl)-4-(4H-1,2,4-triazol-4-yl)benzamide] |
|  | 38 | Cc1ccc2c(cnn2[C@H](CNC(=O)c2ccc(-n3cnnc3)cc2Cl)c2ccccc2)c1 [Example 85, (S)-2-chloro-N-(2-(5-methyl-1H-indazol-1-yl)-2-phenylethyl)-4-(4H-1,2,4-triazol-4-yl)benzamide] |
|  | 7 | Cc1ccc2c(cnn2[C@H](CNC(=O)c2c(Cl)cc(-n3cc(CCO)nn3)cc2Cl)c2cnco2)c1 [Example 86, (R)-2,6-dichloro-4-(4-(2-hydroxyethyl)-1H-1,2,3-triazol-1-yl)-N-(2-(5-methyl-1H-indazol-1-yl)-2-(oxazol-5-yl)ethyl)benzamide] |
| 31.1 |  | Cc1ccc2c([C@H](CNC(=O)c3ccc(-n4cnnc4)cc3Cl)c3cccc(F)c3)c[nH]c2c1 [Example 87] |
|  | 68.8 | Cc1ccc2c([C@H](CNC(=O)c3ccc(-n4cnnc4)cc3Cl)c3ccccc3)n[nH]c2c1 [Example 88, (S)-2-chloro-N-(2-(6-methyl-1H-indazol-3-yl)-2-phenylethyl)-4-(4H-1,2,4-triazol-4-yl)benzamide] |
|  | 20.9 | Cc1ccc2nn([C@@H](CNC(=O)c3c(Cl)cc(-n4cnnc4)cc3Cl)c3ccccc3)nc2c1 [Example 89, (R)-2,6-dichloro-N-(2-(5-methyl-2H-benzo[d][1,2,3]triazol-2-yl)-2-phenylethyl)-4-(4H-1,2,4-triazol-4-yl)benzamide] |
|  | 38 | Cc1ccc2c(c1)nnn2[C@H](CNC(=O)c1c(Cl)cc(-n2cnnc2)cc1Cl)c1ccccc1 [Example 90, (S)-2,6-dichloro-N-(2-(5-methyl-1H-benzo[d][1,2,3]triazol-1-yl)-2-phenylethyl)-4-(4H-1,2,4-triazol-4-yl)benzamide] |
|  | 189 | Cc1ccc2nc([C@@H](CNC(=O)c3ccc(-n4cnnc4)cc3Cl)c3ccccc3)[nH]c(=O)c2c1 [Example 91, (R)-2-Chloro-N-(2-(6-methyl-4-oxo-3,4-dihydroquinazolin-2-yl)-2-phenylethyl)-4-(4H-1,2,4-triazol-4-yl)benzamide] |
|  | 1 | Cc1ncn(-c2cc(Cl)c(C(=O)NC[C@@H](c3cccc(F)c3)c3nc4c(F)ccc(C)c4c(=O)[nH]3)c(Cl)c2)n1 [Example 92, (R)-2,6-dichloro-N-(2-(8-fluoro-5-methyl-4-oxo-3,4-dihydroquinazolin-2-yl)-2-(3-fluorophenyl)ethyl)-4-(3-methyl-1H-1,2,4-triazol-1-yl)benzamide] |
|  | 4.6 | Cc1ncn(-c2cc(Cl)c(C(=O)NC[C@@H](c3ccc(F)cc3)c3nc4c(F)ccc(C)c4c(=O)[nH]3)c(Cl)c2)n1 [Example 93, (R)-2,6-dichloro-N-(2-(8-fluoro-5-methyl-4-oxo-3,4-dihydroquinazolin-2-yl)-2-(4-fluorophenyl)ethyl)-4-(3-methyl-1H-1,2,4-triazol-1-yl)benzamide] |
|  | 3.5 | Cc1ncn(-c2cc(Cl)c(C(=O)NC[C@@H](c3cccc(F)c3)c3nc4c(F)ccc(Cl)c4c(=O)[nH]3)c(Cl)c2)n1 [Example 94, (R)-2,6-dichloro-N-(2-(5-chloro-8-fluoro-4-oxo-3,4-dihydroquinazolin-2-yl)-2-(3-fluorophenyl)ethyl)-4-(3-methyl-1H-1,2,4-triazol-1-yl)benzamide] |
| 803 |  | O=C(NCC(c1ccccc1)c1nc2cc(Cl)ccc2c(=O)[nH]1)c1ccc(-n2cnnc2)cc1Cl (centres unmarked) [Example 95] |
| 188 |  | O=C(NC[C@@H](c1ccccc1)c1nc2ccc(Cl)cc2c(=O)[nH]1)c1ccc(-n2cnnc2)cc1Cl [Example 96] |
| 51.5 |  | O=C(NC[C@@H](c1ccccc1)c1nc2cccc(Cl)c2c(=O)[nH]1)c1ccc(-n2cnnc2)cc1Cl [Example 97] |
| 178 |  | O=C(NC[C@@H](c1ccccc1)c1nc2c(Cl)cccc2c(=O)[nH]1)c1ccc(-n2cnnc2)cc1Cl [Example 98] |
| 43.1 |  | O=C(NC[C@@H](c1ccccc1)c1nc2c(Cl)ccc(Cl)c2c(=O)[nH]1)c1ccc(-n2cnnc2)cc1Cl [Example 99] |
| 16.8 |  | Cc1cccc2nc([C@@H](CNC(=O)c3ccc(-n4cnnc4)cc3Cl)c3ccccc3)[nH]c(=O)c12 [Example 100] |
